# Patent US9340554B2, “IRAK inhibitors and uses thereof” (Nimbus Iris, Inc., priority 2011, dated 2016)
# Where two headings read alike, the source gives them in different places.
# Target: T1, IRAK4 (Homo sapiens, UniProt Q9NWZ3)
# T1 construct: purchased CARNA Bioscience 09-145
# T1 sequence (Q9NWZ3 1-460): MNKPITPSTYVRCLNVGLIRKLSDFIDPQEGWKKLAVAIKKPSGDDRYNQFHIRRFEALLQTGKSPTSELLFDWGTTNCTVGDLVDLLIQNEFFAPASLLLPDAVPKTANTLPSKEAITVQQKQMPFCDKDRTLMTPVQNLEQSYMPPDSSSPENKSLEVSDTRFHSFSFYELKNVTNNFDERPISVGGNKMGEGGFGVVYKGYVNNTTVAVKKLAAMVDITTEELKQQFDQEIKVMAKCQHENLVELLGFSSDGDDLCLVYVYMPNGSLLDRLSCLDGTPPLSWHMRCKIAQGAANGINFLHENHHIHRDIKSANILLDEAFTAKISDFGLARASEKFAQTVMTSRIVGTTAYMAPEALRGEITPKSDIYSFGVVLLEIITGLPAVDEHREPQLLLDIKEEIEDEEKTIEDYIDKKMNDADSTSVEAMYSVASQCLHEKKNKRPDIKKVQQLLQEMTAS
# Assay: IRAK-4 activity inhibition assay (Caliper, Peptide 8, 37 μM ATP)
# Format: biochemical
# Settings: 28° C. 40 minutes
# [1] = 3.5 nM IRAK4, 1.5 μM Peptide 8, 37 μM ATP, read-out: IRAK-4 activity inhibition IC50
Structure (SMILES),IC50 [1] [µM],"IC50 (IRAK-4 activity inhibition IC50, 3.5 nM IRAK4, 1.5 μM Peptide 8, 37 μM ATP) [µM]"
"CN(C)C(=O)CN(C)[C@H]1CC[C@H](Nc2ncnc3sc4c(c23)CCC4)CC1 [Compound I-131, N,N-dimethyl-2-[methyl[4-([7-thia-9,11-diazatricyclo[6.4.0.0[2,6]]dodeca-1(12),2(6),8,10-tetraen-12-yl]amino)cyclohexyl]amino]acetamide]",< 5,–
"CN(C1CCOCC1)[C@H]1CC[C@H](Nc2ncnc3sc4c(c23)CCC4)CC1 [Compound I-132, 1-N-methyl-1-N-(oxan-4-yl)-4-N-[7-thia-9,11-diazatricyclo[6.4.0.0[2,6]]dodeca-1(8),2(6),9,11-tetraen-12-yl]cyclohexane-1,4-diamine]",< 5,–
"O=C(CN[C@H]1CC[C@H](Nc2ncnc3sc4c(c23)CCC4)CC1)N1CCCC1 [Compound I-134, trans-1-(pyrrolidin-1-yl)-2-[[4-([7-thia-9,11-diazatricyclo[6.4.0.0[2,6]]dodeca-1(8),2(6),9,11-tetraen-12-yl]amino)cyclohexyl]amino]ethan-1-one]",< 5,–
"O=C(CN[C@H]1CC[C@H](Oc2ncnc3sc4c(c23)CCC4)CC1)N1CCCC1 [Compound I-135, trans-1-(pyrrolidin-1-yl)-2-[(4-[7-thia-9,11-diazatricyclo[6.4.0.0[2,6]]dodeca-1(8),2(6),9,11-tetraen-12-yloxy]cyclohexyl)amino]ethan-1-one]",< 5,–
"O=C(CN(CC(=O)N1CCCC1)[C@H]1CC[C@H](Nc2ncnc3sc4c(c23)CCC4)CC1)N1CCCC1 [Compound I-136, trans-2-[[2-oxo-2-(pyrrolidin-1-yl)ethyl][4-([7-thia-9,11-diazatricyclo[6.4.0.0[2,6]]dodeca-1(8),2(6),9,11-tetraen-12-yl]amino)cyclohexyl]amino]-1-(pyrrolidin-1-yl)ethan-1-one]",5 to 20,–
"O=C(CN(CC(=O)N1CCCC1)[C@H]1CC[C@H](Oc2ncnc3sc4c(c23)CCC4)CC1)N1CCCC1 [Compound I-137, trans-2-[[2-oxo-2-(pyrrolidin-1-yl)ethyl](4-[7-thia-9,11-diazatricyclo[6.4.0.0[2,6]]dodeca-1(8),2(6),9,11-tetraen-12-yloxy]cyclohexyl)amino]-1-(pyrrolidin-1-yl)ethan-1-one]",5 to 20,–
"FC(F)(F)CN[C@H]1CC[C@H](Nc2ncnc3sc4c(c23)CCC4)CC1 [Compound I-138, 1-N-[7-thia-9,11-diazatricyclo[6.4.0.0^[2,6]]dodeca-1(8),2(6),9,11-tetraen-12-yl]-4-N-(2,2,2-trifluoroethyl)cyclohexane-1,4-diamine]",5 to 20,–
"C[N+](C)(C)[C@H]1CC[C@H](Nc2ncnc3sc4c(c23)CCC4)CC1 [Compound I-139, (1r,4r)-4-((6,7-dihydro-5H-cyclopenta[4,5]thieno[2,3-d]pyrimidin-4-yl)amino)-N,N,N-trimethylcyclohexanaminium iodide]",–,20 to 50
"c1nc(OCCN2CCNCC2)c2c3c(sc2n1)CCC3 [Compound I-140, 4-(2-(piperazin-1-yl)ethoxy)-6,7-dihydro-5H-cyclopenta[4,5]thieno[2,3-d]pyrimidine]",20 to 50,–
"CN(C)CC1CC(Oc2ncnc3sc4c(c23)CCC4)C1 (stereo not drawn) [Compound I-141, 1-(3-((6,7-dihydro-5H-cyclopenta[4,5]thieno[2,3-d]pyrimidin-4-yl)oxy)cyclobutyl)-N,N-dimethylmethanamine]",5 to 20,–
"c1nc(N[C@H]2CC[C@H](N3CCCC3)CC2)c2c3c(sc2n1)CCC3 [Compound I-142, N-((1r,4r)-4-(pyrrolidin-1-yl)cyclohexyl)-6,7-dihydro-5H-cyclopenta[4,5]thieno[2,3-d]pyrimidin-4-amine]",< 5,–
"c1nc(N[C@H]2CC[C@H](N3CCCCC3)CC2)c2c3c(sc2n1)CCC3 [Compound I-143, N-((1r,4r)-4-(piperidin-1-yl)cyclohexyl)-6,7-dihydro-5H-cyclopenta[4,5]thieno[2,3-d]pyrimidin-4-amine]",< 5,–
"CN(C)[C@H]1CC[C@H](N(C)c2ncnc3sc4c(c23)CCC4)CC1 [Compound I-144, (1r,4r)-N1-(6,7-dihydro-5H-cyclopenta[4,5]thieno[2,3-d]pyrimidin-4-yl)-N1,N4,N4-trimethylcyclohexane-1,4-diamine]",< 5,–
OCC(CO)Nc1ncnc2sc3c(c12)CCC3 [Compound I-145],20 to 50,–
"CN[C@H]1CC[C@H](N(C)c2ncnc3sc4c(c23)CCC4)CC1 [Compound I-146, (1r,4r)-N1-(6,7-dihydro-5H-cyclopenta[4,5]thieno[2,3-d]pyrimidin-4-yl)-N1,N4-dimethylcyclohexane-1,4-diamine]",< 5,–
"c1nc(NCCN2CCNCC2)c2c3c(sc2n1)CCC3 [Compound I-147, N-(2-(piperazin-1-yl)ethyl)-6,7-dihydro-5H-cyclopenta[4,5]thieno[2,3-d]pyrimidin-4-amine]",> 50,–
"CN(C)[C@H]1CC[C@H](COc2ncnc3sc4c(c23)CCC4)CC1 [Compound I-148, (1r,4r)-4-(((6,7-dihydro-5H-cyclopenta[4,5]thieno[2,3-d]pyrimidin-4-yl)oxy)methyl)-N,N-dimethylcyclohexanamine]",20 to 50,–

Structure (SMILES),IC50 [1] [µM],"IC50 (IRAK-4 activity inhibition IC50, 3.5 nM IRAK4, 1.5 μM Peptide 8, 37 μM ATP) [µM]"
"c1nc(N[C@H]2CC[C@H](N3CCOCC3)CC2)c2c3c(sc2n1)CCC3 [Compound I-149, N-((1r,4r)-4-morpholinocyclohexyl)-6,7-dihydro-5H-cyclopenta[4,5]thieno[2,3-d]pyrimidin-4-amine]",< 5,–
"CN(C)CCN1CCN(c2ncnc3sc4c(c23)CCC4)CC1 [Compound I-150, 2-(4-(6,7-dihydro-5H-cyclopenta[4,5]thieno[2,3-d]pyrimidin-4-yl)piperazin-1-yl)-N,N-dimethylethanamine]",20 to 50,–
"CN(Cc1ccccc1)[C@H]1CC[C@H](Nc2ncnc3sc4c(c23)CCC4)CC1 [Compound I-151, (1r,4r)-N1-benzyl-N4-(6,7-dihydro-5H-cyclopenta[4,5]thieno[2,3-d]pyrimidin-4-yl)-N1-methylcyclohexane-1,4-diamine]",< 5,–
C[C@@H](Nc1ncnc2sc3c(c12)CCC3)C(=O)O [Compound I-153],> 50,–
"N[C@H]1CC[C@@H](Nc2ncnc3sc4c(c23)CCC4)CC1 [Compound I-154, (1s,4s)-N1-(6,7-dihydro-5H-cyclopenta[4,5]thieno[2,3-d]pyrimidin-4-yl)cyclohexane-1,4-diamine]",5 to 20,–
"CN[C@H]1CC[C@@H](Nc2ncnc3sc4c(c23)CCC4)CC1 [Compound I-156, (1s,4s)-1-N-methyl-4-N-[7-thia-9,11-diazatricyclo[6.4.0.0^[2,6]]dodeca-1(12),2(6),8,10-tetraen-12-yl]cyclohexane-1,4-diamine]",20 to 50,–
"CC(C)N[C@H]1CC[C@H](Nc2ncnc3sc4c(c23)CCC4)CC1 [Compound I-157, 1-N-(propan-2-yl)-4-N-[7-thia-9,11-diazatricyclo[6.4.0.0^[2,6]]dodeca-1(8),2(6),9,11-tetraen-12-yl]cyclohexane-1,4-diamine]",< 5,–
"c1nc(N[C@H]2CC[C@H](N3CCC3)CC2)c2c3c(sc2n1)CCC3 [Compound I-158, N-[4-(azetidin-1-yl)cyclohexyl]-7-thia-9,11-diazatricyclo[6.4.0.0^[2,6]]dodeca-1(8),2(6),9,11-tetraen-12-amine]",< 5,–
"c1nc(N[C@H]2CC[C@@H](N3CCC3)CC2)c2c3c(sc2n1)CCC3 [Compound I-159, N-((1s,4s)-4-(azetidin-1-yl)cyclohexyl)-6,7-dihydro-5H-cyclopenta[4,5]thieno[2,3-d]pyrimidin-4-amine]",20 to 50,–
"c1nc(N[C@H]2CC[C@@H](N3CCOCC3)CC2)c2c3c(sc2n1)CCC3 [Compound I-160, N-((1s,4s)-4-morpholinocyclohexyl)-6,7-dihydro-5H-cyclopenta[4,5]thieno[2,3-d]pyrimidin-4-amine]",5 to 20,–
CC(C)N[C@H]1CC[C@@H](Nc2ncnc3sc4c(c23)CCC4)CC1 [Compound I-161],> 50,–
CN(Cc1ccncc1)[C@H]1CC[C@H](Nc2ncnc3sc4c(c23)CCC4)CC1 [Compound I-162],< 5,–
"CN(Cc1cccnc1)[C@H]1CC[C@H](Nc2ncnc3sc4c(c23)CCC4)CC1 [Compound I-163, 1-N-methyl-1-N-(pyridin-3-ylmethyl)-4-N-[7-thia-9,11-diazatricyclo[6.4.0.0^[2,6]]dodeca-1(12),2(6),8,10-tetraen-12-yl]cyclohexane-1,4-diamine]",< 5,–
"CN(Cc1ccc(C(N)=O)cc1)[C@H]1CC[C@H](Nc2ncnc3sc4c(c23)CCC4)CC1 [Compound I-164, 4-([methyl[4-([7-thia-9,11-diazatricyclo[6.4.0.0^[2,6]]dodeca-1(8),2(6),9,11-tetraen-12-yl]amino)cyclohexyl]amino]methyl)benzamide]",< 5,–
"CN(Cc1cccc(CO)c1)[C@H]1CC[C@H](Nc2ncnc3sc4c(c23)CCC4)CC1 [Compound I-165, [3-([methyl[4-([7-thia-9,11-diazatricyclo[6.4.0.0^[2,6]]dodeca-1(8),2(6),9,11-tetraen-12-yl]amino)cyclohexyl]amino]methyl)phenyl]methanol]",< 5,–
"CN(Cc1cccc(C(N)=O)c1)[C@H]1CC[C@H](Nc2ncnc3sc4c(c23)CCC4)CC1 [Compound I-166, 3-((((1r,4r)-4-((6,7-dihydro-5H-cyclopenta[4,5]thieno[2,3-d]pyrimidin-4-yl)amino)cyclohexyl)(methyl)amino)methyl)benzamide]",< 5,–
